Key:
Format in all cases: in vivo
[1] = system: crabgrass, large (large crabgrass, Digitaria sanguinalis); test: Test A pre-/postemergence: crabgrass, large
Method in brief: (§1)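 Whole-plant greenhouse assay in loam/sand. Preemergence directed soil spray plus simultaneous postemergence spray (one- to two-leaf stage, 2–10 cm). Rated visually ~10 days later, 0 = no effect, 100 = complete control.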

[2] = system: morningglory (Ipomoea coccinea); test: Test C pre-/postemergence: morningglory
Text: (§2) Seeds of plant species selected from blackgrass (Alopecurus myosuroides), bromegrass, downy (downy bromegrass, Bromus tectorum), foxtail, green (green foxtail, Setaria viridis), ryegrass, Italian (Italian ryegrass, Lolium multiflorum), winter wheat (Triticum aestivum), wild oat (Avena fatua), galium (catchweed bedstraw, Galium aparine), bermudagrass (Cynodon dactylon), surinam grass (Brachiaria decumbens), cocklebur (common cocklebur, Xanthium strumarium), corn (Zea mays), large crabgrass (Digitaria sanguinalis), woolly cupgrass (Eriochloa villosa), foxtail, giant (giant foxtail, Setaria faberii), goosegrass (Eleusine indica), johnsongrass (Sorghum halepense), kochia (Kochia scoparia), lambsquarters (Chenopodium album), morningglory (Ipomoea coccinea), nightshade (eastern black nightshade, Solanum ptycanthum), nutsedge, yellow (yellow nutsedge, Cyperus esculentus), pigweed (Amaranthus retroflexus), ragweed (common ragweed, Ambrosia elation), soybean (Glycine max), common (oilseed) sunflower (Helianthus annuus), Russian thistle (Salsola kali) and velvetleaf (Abutilon theophrasti) were planted into a blend of loam soil and sand and treated preemergence with test chemicals formulated in a non-phytotoxic solvent mixture which included a surfactant.
(§3) At the same time, plants selected from these crop and weed species and also barley (winter barley, Hordeum vulgare), canarygrass (Phalaris minor), chickweed (common chickweed, Stellaria media) windgrass (Apera spica-venti) and deadnettle (henbit deadnettle, Lamium amplexicaule) were planted in pots containing Redi-Earth® planting medium (Scotts Company, 14111 Scottslawn Road, Marysville, Ohio 43041) comprising spaghnum peat moss, vermiculite, wetting agent and starter nutrients and treated with postemergence applications of test chemicals formulated in the same manner. Plants ranged in height from 2 to 18 cm (1- to 4-leaf stage) for postemergence treatments.
(§4) Treated plants and controls were maintained in a greenhouse for 13 to 15 days, after which time all species were compared to controls and visually evaluated. Plant response ratings, summarized in Table C, are based on a scale of 0 to 100 where 0 is no effect and 100 is complete control. A dash (-) response means no test result.

[3] = system: blackgrass (Alopecurus myosuroides); test: Test C pre-/postemergence: blackgrass
Text: as §2, §3, §4

[4] = system: morningglory (Ipomoea spp.); test: Test A pre-/postemergence: morningglory
Method in brief: as §1

[5] = system: velvetleaf (Abutilon theophrasti); test: Test A pre-/postemergence: velvetleaf
Method in brief: as §1

[6] = system: foxtail, giant (giant foxtail, Setaria faberii); test: Test A pre-/postemergence: foxtail, giant
Method in brief: as §1

[7] = system: bromegrass, downy (downy bromegrass, Bromus tectorum); test: Test C pre-/postemergence: bromegrass, downy; conditions: Postemergence
Text: as §2, §3, §4

[8] = system: johnsongrass (Sorghum halepense); test: Test C pre-/postemergence: johnsongrass
Text: as §2, §3, §4

[9] = system: galium (catchweed bedstraw, Galium aparine); test: Test C pre-/postemergence: galium
Text: as §2, §3, §4

[10] = Postemergence, 125 g ai/ha, 0 to 100 scale, 0 is no effect, 100 is complete control
[11] = Postemergence, 500 g ai/ha, visual rating on 0 to 100 scale (0 no effect, 100 complete control), approximately ten days
[12] = Preemergence, 125 g ai/ha, 0 to 100 scale where 0 is no effect and 100 is complete control
[13] = Preemergence, 500 g ai/ha, 0 to 100 scale (0 no effect, 100 complete control)
[14] = Postemergence, 31 g ai/ha, scale 0 to 100 (0 no effect, 100 complete control)
[15] = Postemergence, 62 g ai/ha, scale 0 to 100 (0 no effect, 100 complete control)
[16] = Postemergence, 125 g ai/ha, scale 0 to 100, 0 no effect, 100 complete control
[17] = Postemergence, 250 g ai/ha, scale 0 to 100
[18] = 31 g ai/ha, scale 0 to 100 (0 no effect, 100 complete control)
[19] = 62 g ai/ha, scale 0 to 100 (0 no effect, 100 complete control)
[20] = 125 g ai/ha, scale 0 to 100, 0 no effect, 100 complete control
[21] = Preemergence, 125 g ai/ha, 0 to 100 scale (0 no effect, 100 complete control)
[22] = Preemergence, 500 g ai/ha, 0 to 100 scale, 0 is no effect, 100 is complete control
[23] = Postemergence, 500 g ai/ha, 0 to 100 scale, 0 is no effect, 100 is complete control
[24] = Preemergence, 31 g ai/ha, scale of 0 to 100, 0 is no effect, 100 is complete control
[25] = Preemergence, 62 g ai/ha, scale of 0 to 100, 0 is no effect, 100 is complete control
[26] = Preemergence, 125 g ai/ha, scale 0 to 100, 0 no effect, 100 complete control
[27] = Preemergence, 250 g ai/ha, scale 0 to 100, 0 no effect, 100 complete control

Cc1nn(-c2ccnc(Cl)c2)nc1Cc1ccnc(C(F)(F)F)c1 [Compound 141]
Crabgrass, Large plant response rating [1, 10]: 90 | Crabgrass, Large plant response rating [1, 11]: 90 | Plant response rating, Crabgrass, Large [1, 12]: 100 | Plant response rating, Crabgrass, Large [1, 13]: 100 | Plant response rating, Morningglory [2, 14]: 85 | Plant response rating, Morningglory [2, 15]: 85 | Plant response rating, Morningglory [2, 16]: 95 | Plant response rating, Blackgrass [3, 14]: 20 | Plant response rating, Blackgrass [3, 15]: 20 | Plant response rating, Blackgrass [3, 16]: 35 | Plant response rating, Blackgrass [3, 17]: 75 | Plant response rating, Morningglory [4, 10]: 80 | Morningglory plant response rating [4, 11]: 90 | Plant response rating, Morningglory [4, 12]: 30 | Plant response rating, Morningglory [4, 13]: 60 | Plant response rating, Velvetleaf [5, 10]: 70 | Velvetleaf plant response rating [5, 11]: 90 | Plant response rating, Velvetleaf [5, 12]: 20 | Plant response rating, Velvetleaf [5, 13]: 60 | Foxtail, Giant plant response rating [6, 10]: 90 | Foxtail, Giant plant response rating [6, 11]: 90 | Plant response rating, Foxtail, Giant [6, 12]: 100 | Plant response rating, Foxtail, Giant [6, 13]: 100 | Plant response rating, Bromegrass, Downy [7, 18]: 25 | Plant response rating, Bromegrass, Downy [7, 19]: 30 | Plant response rating, Bromegrass, Downy [7, 20]: 30 | Plant response rating, Bromegrass, Downy ([7]; 250 g ai/ha, scale 0 to 100): 45 | Plant response rating, Johnsongrass [8, 14]: 10 | Plant response rating, Johnsongrass [8, 15]: 10 | Plant response rating, Johnsongrass [8, 16]: 15 | Plant response rating, Johnsongrass [8, 17]: 15 | Plant response rating, Galium [9, 14]: 85 | Plant response rating, Galium [9, 15]: 85 | Plant response rating, Galium [9, 16]: 90 | Plant response rating, Galium [9, 17]: 90

FC(F)(F)c1ccc(-n2nc(Cl)c(Cc3ccnc(C(F)(F)F)c3)n2)cc1 [Compound 28]
Crabgrass, Large plant response rating [1, 10]: 70 | Crabgrass, Large plant response rating [1, 11]: 90 | Plant response rating, Crabgrass, Large [1, 21]: 30 | Plant response rating, Crabgrass, Large [1, 22]: 90 | Plant response rating, Blackgrass [3, 14]: 10 | Plant response rating, Blackgrass [3, 15]: 10 | Plant response rating, Blackgrass [3, 16]: 55 | Plant response rating, Blackgrass [3, 17]: 60 | Morningglory plant response rating [4, 10]: 100 | Morningglory plant response rating [4, 11]: 100 | Plant response rating, Morningglory [4, 21]: 20 | Velvetleaf plant response rating [5, 10]: 80 | Velvetleaf plant response rating [5, 11]: 100 | Plant response rating, Velvetleaf [5, 21]: 20 | Plant response rating, Velvetleaf [5, 22]: 80 | Foxtail, Giant plant response rating [6, 10]: 90 | Foxtail, Giant plant response rating [6, 11]: 90 | Plant response rating, Foxtail, Giant [6, 21]: 100 | Plant response rating, Foxtail, Giant [6, 22]: 100 | Plant response rating, Bromegrass, Downy [7, 18]: 5 | Plant response rating, Bromegrass, Downy [7, 19]: 25 | Plant response rating, Bromegrass, Downy [7, 20]: 35 | Plant response rating, Bromegrass, Downy ([7]; 250 g ai/ha, scale 0 to 100): 35 | Plant response rating, Johnsongrass [8, 14]: 5 | Plant response rating, Johnsongrass [8, 15]: 5 | Plant response rating, Johnsongrass [8, 16]: 5 | Plant response rating, Johnsongrass [8, 17]: 10 | Plant response rating, Galium [9, 14]: 40 | Plant response rating, Galium [9, 15]: 55 | Plant response rating, Galium [9, 16]: 70 | Plant response rating, Galium [9, 17]: 80

CCOCc1nn(-c2ccc(F)cc2)nc1Oc1ccnc(C(F)(F)F)c1 [Compound 163]
Plant response rating, Crabgrass, Large [1, 10]: 70 | Crabgrass, Large plant response rating [1, 23]: 100 | Plant response rating, Crabgrass, Large [1, 12]: 100 | Plant response rating, Crabgrass, Large [1, 13]: 100 | Plant response rating, Morningglory [2, 24]: 20 | Plant response rating, Morningglory [2, 25]: 25 | Plant response rating, Morningglory [2, 26]: 30 | Plant response rating, Morningglory [2, 27]: 75 | Plant response rating, Blackgrass [3, 24]: 5 | Plant response rating, Blackgrass [3, 25]: 85 | Plant response rating, Blackgrass [3, 26]: 90 | Plant response rating, Blackgrass [3, 27]: 95 | Plant response rating, Morningglory [4, 10]: 30 | Morningglory plant response rating [4, 23]: 80 | Plant response rating, Morningglory [4, 12]: 10 | Plant response rating, Morningglory [4, 13]: 30 | Plant response rating, Velvetleaf [5, 10]: 40 | Velvetleaf plant response rating [5, 23]: 100 | Plant response rating, Velvetleaf [5, 12]: 0 | Plant response rating, Velvetleaf [5, 13]: 20 | Plant response rating, Foxtail, Giant [6, 10]: 60 | Foxtail, Giant plant response rating [6, 23]: 90 | Plant response rating, Foxtail, Giant [6, 12]: 100 | Plant response rating, Foxtail, Giant [6, 13]: 100 | Plant response rating, Johnsongrass [8, 24]: 30 | Plant response rating, Johnsongrass [8, 25]: 35 | Plant response rating, Johnsongrass [8, 26]: 60 | Plant response rating, Johnsongrass [8, 27]: 60 | Plant response rating, Galium [9, 24]: 0 | Plant response rating, Galium [9, 25]: 5 | Plant response rating, Galium [9, 26]: 5 | Plant response rating, Galium [9, 27]: 75

— patent US9302999B2, “Substituted triazoles as herbicides” (E. I. DU PONT DE NEMOURS AND COMPANY, priority 2012, dated 2016)
